Assay results from publication PMC8519569 (Science Advances, 2021).

Target: T1, PatA (Mycolicibacterium smegmatis, UniProt A0QWG5)
T1 sequence (A0QWG5 1-304): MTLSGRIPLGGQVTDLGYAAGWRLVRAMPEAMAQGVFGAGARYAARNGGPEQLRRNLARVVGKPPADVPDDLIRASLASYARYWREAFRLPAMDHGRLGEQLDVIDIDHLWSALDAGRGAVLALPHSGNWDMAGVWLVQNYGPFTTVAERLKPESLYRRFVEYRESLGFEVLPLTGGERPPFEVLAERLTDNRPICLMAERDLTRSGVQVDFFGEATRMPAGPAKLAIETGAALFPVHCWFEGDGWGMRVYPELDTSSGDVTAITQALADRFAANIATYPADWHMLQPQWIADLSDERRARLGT
Assay: isothermal titration calorimetry
Assay type: binding

SMILES: CCCCCCCCCCCCCCCCSCCNC(=O)CCNC(=O)[C@H](O)C(C)(C)COP(=O)(O)OP(=O)(O)OC[C@H]1O[C@@H](n2cnc3c(N)ncnc32)[C@H](O)[C@@H]1OP(=O)(O)O [S-C16-CoA, S-hexadecyl-CoA]
- Kd: 7.18 µM
